# Where “and” joins values, the source holds several entries; their conditions need not be identical. Equal entries are not always repeated.
# Target: full length human WEE1 kinase (Homo sapiens, UniProt P30291)
# Test: ELISA based assay: WEE1 phosphorylation of biotinylated H2B peptide spanning Tyr37
# Format: biochemical
# Set-up: A full length human WEE1 kinase that was enzymatically active was purified from insect cell; ELISA assay % Inhibition: concentration or dose not given beside the values
# Details: for ELISA Inhibition (%): Table 1, several values in a cell are repeat determinations
# Excerpt: Designing of a Novel inhibitor Screening Platform: […] A full length human WEE1 kinase that was enzymatically active was purified from insect cell. […] NCI diversity set compound library ( 1600 compounds) was used for the screening.
# Chain of full length human WEE1 kinase (P30291 whole entry): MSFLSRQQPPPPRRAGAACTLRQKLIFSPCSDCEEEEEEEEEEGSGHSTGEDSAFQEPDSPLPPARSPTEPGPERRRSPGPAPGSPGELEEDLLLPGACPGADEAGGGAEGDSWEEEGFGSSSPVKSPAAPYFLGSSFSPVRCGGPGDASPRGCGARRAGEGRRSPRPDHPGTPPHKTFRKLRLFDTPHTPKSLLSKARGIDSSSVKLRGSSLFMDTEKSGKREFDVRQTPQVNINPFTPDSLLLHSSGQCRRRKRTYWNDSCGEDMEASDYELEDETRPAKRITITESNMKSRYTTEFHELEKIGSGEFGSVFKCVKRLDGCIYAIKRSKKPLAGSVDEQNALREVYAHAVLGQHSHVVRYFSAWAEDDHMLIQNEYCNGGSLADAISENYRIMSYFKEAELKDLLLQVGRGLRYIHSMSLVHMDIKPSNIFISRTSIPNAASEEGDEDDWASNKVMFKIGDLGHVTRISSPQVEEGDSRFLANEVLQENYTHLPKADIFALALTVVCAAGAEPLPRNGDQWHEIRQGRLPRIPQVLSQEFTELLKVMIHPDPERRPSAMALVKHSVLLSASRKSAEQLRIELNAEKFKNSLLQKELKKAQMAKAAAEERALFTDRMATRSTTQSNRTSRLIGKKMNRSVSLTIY
Compound,ELISA Inhibition (%),further results
CC(C)(C)OC(=O)Nc1ccc(NC(=O)c2cccc(C(=O)Nc3ccc(NC(=O)OC(C)(C)C)cc3)c2)cc1 [SG5-099],−14%,
Nc1ccc(NC(=O)c2cccc(C(=O)Nc3ccc(N)cc3)c2)cc1 [SG5-103],12%,
Cc1cc(C(=O)Nc2ccc(NC(=O)OC(C)(C)C)cc2)c(C)cc1C(=O)Nc1ccc(NC(=O)OC(C)(C)C)cc1 [SG5-106],−23%,
"CC(C)(C)OC(=O)Nc1ccc(NC(=O)c2ccc(C(=O)Nc3ccc(NC(=O)OC(C)(C)C)cc3)o2)cc1 [SG5-107, Di-tert-butyl (((furan-2,5-dicarbonyl)bis(azanediyl))bis(4,1-phenylene))dicarbamate]",−8%,
Cc1cc(C(=O)Nc2ccc(N)cc2)c(C)cc1C(=O)Nc1ccc(N)cc1 [SG5-110],14%,
"CC(C)(C)OC(=O)Nc1ccc(NC(=O)c2ccc(C(=O)Nc3ccc(NC(=O)OC(C)(C)C)cc3)nc2)cc1 [SG5-119, Di-tert-butyl (((pyridine-2,5-dicarbonyl)bis(azanediyl))bis(4,1-phenylene))dicarbamate]",−17%,
CC(C)(C)OC(=O)Nc1ccc(NC(=O)[C@H]2CC[C@H](C(=O)Nc3ccc(NC(=O)OC(C)(C)C)cc3)CC2)cc1 [SG5-121],−7%,
CC(C)(C)OC(=O)Nc1ccc(NC(=O)c2cccc(C(=O)Nc3ccc(NC(=O)OC(C)(C)C)cc3)n2)cc1 [SG5-123],−39%,
"Nc1ccc(NC(=O)c2ccc(C(=O)Nc3ccc(N)cc3)nc2)cc1 [SG5-124, N^2,N^5-bis(4-aminophenyl)pyridine-2,5-dicarboxamide]",73% and 103%,"ELISA assay % Inhibition (Table 3, No peptide = 100, No inhibitor = 0): 98%"
Nc1ccc(NC(=O)[C@H]2CC[C@H](C(=O)Nc3ccc(N)cc3)CC2)cc1 [SG5-126],−39%,
Nc1ccc(NC(=O)c2cccc(C(=O)Nc3ccc(N)cc3)n2)cc1 [SG5-128],2%,
CC(C)(C)OC(=O)Nc1ccc(NC(=O)c2ccc(C(=O)Nc3ccc(NC(=O)OC(C)(C)C)c(F)c3)cc2)cc1F [SG5-133-1],−57%,
CC(C)(C)OC(=O)Nc1ccc(NC(=O)c2ccc(C(=O)Nc3ccc(NC(=O)OC(C)(C)C)c(Cl)c3)cc2)cc1Cl [SG5-133-2],−38%,
Nc1ccc(NC(=O)c2ccc(C(=O)Nc3ccc(N)c(F)c3)cc2)cc1F [SG5-137-1],−24%,
Cl.Nc1ccc(NC(=O)c2ccc(C(=O)Nc3ccc(N)c(Cl)c3)cc2)cc1Cl [SG5-137-2],−52%,
"Cl.Nc1ccc(CNC(=O)c2ccc(C(=O)NCc3ccc(N)cc3)cc2)cc1 [SG5-137-3, N^1,N^4-bis(4-aminobenzyl)terephthalamide dihydrochloride]",,ELISA Inhibition (%) (dihydrochloride): 32% and 60%
Cc1cc(C(=O)Nc2ccc(NC(=O)OC(C)(C)C)c(F)c2)c(C)cc1C(=O)Nc1ccc(NC(=O)OC(C)(C)C)c(F)c1 [SG5-140-1],25%,
CC(C)(C)OC(=O)Nc1ccc(NC(=O)c2ccc(C(=O)Nc3ccc(NC(=O)OC(C)(C)C)c(F)c3)o2)cc1F [SG5-140-2],25%,
"CC(C)(C)OC(=O)Nc1ccc(NC(=O)c2ccc(C(=O)Nc3ccc(NC(=O)OC(C)(C)C)c(F)c3)nc2)cc1F [SG5-140-3, Di-tert-butyl (((pyridine-2,5-dicarbonyl)bis(azanediyl))bis(2-fluoro-4,1-phenylene))dicarbamate]",22%,
CC(C)(C)OC(=O)Nc1ccc(NC(=O)[C@H]2CC[C@H](C(=O)Nc3ccc(NC(=O)OC(C)(C)C)c(F)c3)CC2)cc1F [SG5-140-4],20%,
Cc1cc(C(=O)Nc2ccc(NC(=O)OC(C)(C)C)c(Cl)c2)c(C)cc1C(=O)Nc1ccc(NC(=O)OC(C)(C)C)c(Cl)c1 [SG5-140-5],24%,
CC(C)(C)OC(=O)Nc1ccc(NC(=O)c2ccc(C(=O)Nc3ccc(NC(=O)OC(C)(C)C)c(Cl)c3)o2)cc1Cl [SG5-140-6],17%,
CC(C)(C)OC(=O)Nc1ccc(NC(=O)c2ccc(C(=O)Nc3ccc(NC(=O)OC(C)(C)C)c(Cl)c3)nc2)cc1Cl [SG5-140-7],12%,
CC(C)(C)OC(=O)Nc1ccc(NC(=O)C2CCC(C(=O)Nc3ccc(NC(=O)OC(C)(C)C)c(Cl)c3)CC2)cc1Cl (stereo not drawn) [SG5-140-8],25%,
Cc1cc(C(=O)Nc2ccc(CNC(=O)OC(C)(C)C)cc2)c(C)cc1C(=O)Nc1ccc(CNC(=O)OC(C)(C)C)cc1 [SG5-140-9],18%,
CC(C)(C)OC(=O)NCc1ccc(NC(=O)c2ccc(C(=O)Nc3ccc(CNC(=O)OC(C)(C)C)cc3)o2)cc1 [SG5-140-10],13%,
"CC(C)(C)OC(=O)NCc1ccc(NC(=O)c2ccc(C(=O)Nc3ccc(CNC(=O)OC(C)(C)C)cc3)nc2)cc1 [SG5-140-11, Di-tert-butyl ((((pyridine-2,5-dicarbonyl)bis(azanediyl))bis(4,1-phenylene))bis(methylene))dicarbamate]",−6%,

Compound,ELISA Inhibition (%),further results
CC(C)(C)OC(=O)NCc1ccc(NC(=O)C2CCC(C(=O)Nc3ccc(CNC(=O)OC(C)(C)C)cc3)CC2)cc1 (stereo not drawn) [SG5-140-12],4%,
Cc1cc(C(=O)NCc2ccc(NC(=O)OC(C)(C)C)cc2)c(C)cc1C(=O)NCc1ccc(NC(=O)OC(C)(C)C)cc1 [SG5-140-13],−4%,
CC(C)(C)OC(=O)Nc1ccc(CNC(=O)c2ccc(C(=O)NCc3ccc(NC(=O)OC(C)(C)C)cc3)o2)cc1 [SG5-140-14],−4%,
CC(C)(C)OC(=O)Nc1ccc(CNC(=O)c2ccc(C(=O)NCc3ccc(NC(=O)OC(C)(C)C)cc3)nc2)cc1 [SG5-140-15],12%,
CC(C)(C)OC(=O)Nc1ccc(CNC(=O)C2CCC(C(=O)NCc3ccc(NC(=O)OC(C)(C)C)cc3)CC2)cc1 (stereo not drawn) [SG5-140-16],8%,
Cc1cc(C(=O)NC2CCN(C(=O)OC(C)(C)C)CC2)c(C)cc1C(=O)NC1CCN(C(=O)OC(C)(C)C)CC1 [SG5-140-17],10%,
CC(C)(C)OC(=O)N1CCC(NC(=O)c2ccc(C(=O)NC3CCN(C(=O)OC(C)(C)C)CC3)o2)CC1 [SG5-140-18],−27%,
CC(C)(C)OC(=O)N1CCC(NC(=O)c2ccc(C(=O)NC3CCN(C(=O)OC(C)(C)C)CC3)nc2)CC1 [SG5-140-19],28%,
CC(C)(C)OC(=O)N1CCC(NC(=O)C2CCC(C(=O)NC3CCN(C(=O)OC(C)(C)C)CC3)CC2)CC1 (stereo not drawn) [SG5-140-20],28%,
Cc1cc(C(=O)Nc2ccc(N)c(F)c2)c(C)cc1C(=O)Nc1ccc(N)c(F)c1.Cl [SG5-147-1],41%,
Cl.Nc1ccc(NC(=O)c2ccc(C(=O)Nc3ccc(N)c(F)c3)o2)cc1F [SG5-147-2],37%,
"Cl.Cl.Cl.Nc1ccc(NC(=O)c2ccc(C(=O)Nc3ccc(N)c(F)c3)nc2)cc1F [SG5-147-3, (2,5-Bis((4-amino-3-fluorophenyl)carbamoyl)pyridin-1-ium-1-yl)hydridochlorate(I) dihydrochloride]",50%,
Cl.Nc1ccc(NC(=O)C2CCC(C(=O)Nc3ccc(N)c(F)c3)CC2)cc1F (stereo not drawn) [SG5-147-4],20%,
Cc1cc(C(=O)Nc2ccc(N)c(Cl)c2)c(C)cc1C(=O)Nc1ccc(N)c(Cl)c1.Cl [SG5-147-5],2%,
Cl.Nc1ccc(NC(=O)c2ccc(C(=O)Nc3ccc(N)c(Cl)c3)o2)cc1Cl [SG5-147-6],13%,
Cl.Nc1ccc(NC(=O)C2CCC(C(=O)Nc3ccc(N)c(Cl)c3)CC2)cc1Cl (stereo not drawn) [SG5-147-8],17%,
Cc1cc(C(=O)Nc2ccc(CN)cc2)c(C)cc1C(=O)Nc1ccc(CN)cc1.Cl [SG5-147-9],9%,
Cl.NCc1ccc(NC(=O)c2ccc(C(=O)Nc3ccc(CN)cc3)o2)cc1 [SG5-147-10],4%,
Cl.NCc1ccc(NC(=O)C2CCC(C(=O)Nc3ccc(CN)cc3)CC2)cc1 (stereo not drawn) [SG5-147-12],−9%,
Cc1cc(C(=O)NCc2ccc(N)cc2)c(C)cc1C(=O)NCc1ccc(N)cc1.Cl [SG5-147-13],12%,
Cl.Nc1ccc(CNC(=O)c2ccc(C(=O)NCc3ccc(N)cc3)o2)cc1 [SG5-147-14],−16%,
Cl.Nc1ccc(CNC(=O)C2CCC(C(=O)NCc3ccc(N)cc3)CC2)cc1 (stereo not drawn) [SG5-147-16],−14%,
Cc1cc(C(=O)NC2CCNCC2)c(C)cc1C(=O)NC1CCNCC1.Cl [SG5-147-17],21%,
Cl.O=C(NC1CCNCC1)c1ccc(C(=O)NC2CCNCC2)o1 [SG5-147-18],−5%,
Cl.O=C(NC1CCNCC1)C1CCC(C(=O)NC2CCNCC2)CC1 (stereo not drawn) [SG5-147-20],22%,
"(2,5-Bis((4-(aminomethyl)phenyl)carbamoyl)pyridin-1-ium-1-yl)hydridochlorate(I) dihydrochloride [SG5-147-11]",68%,

# Source: patent publication US11987568B2, “Allosteric inhibitor of WEE1 kinase” (H. LEE MOFFITT CANCER CENTER AND RESEARCH INSTITUTE, INC., priority 2018, dated 2024)
